Test results from patent US10265298B2, “Method of increasing the bioavailability of silybin” (Macau University of Science and Technology, priority 2017, dated 2019).

Tests used:
[1] = in vivo, po; for Cmax of free silybin / mean Cmax of total silybin (parent plus sulfate and glucuronide conjugates): rat
Description: The rats were randomly divided into three groups with six rats in each group. The oral administration dosages of silybin were 10 and 50 mg/10 ml/kg body weight without or with baicalein/tangeretin at the same dosage. Before experimentation, the animals were fasted for 24 hours with water ad libitum, and maintained at a temperature of 21° C. with 70% relative humidity and a 12 hour light/dark cycle. After oral administration, tail vein blood samples were collected (0.1 ml) into heparinized 0.65 ml micro-centrifuge tubes at the following time intervals: 0, 15, 30, 45, 60, 90, 120, 240, 360, 480, and 720 minutes. The blood samples then were immediately centrifuged at 4,000 rotations per minute (rpm) for 15 minutes at 4 degrees Celsius (° C.), and the resulting plasma was collected and stored at −80° C. until analysis.
To estimate the concentration of total glucuronide and sulfate conjugates of silybin in bio-samples including plasma, cell, and media, enzymatic hydrolysis with […] (8000 U/ml) and sulfatase (80 units per milliliter (U/ml)) was performed with 10 microliter (μl) aliquot of samples. The reactions were terminated by the addition of 40 μl of ice-cold acetonitrile containing 1% glacial acetic acid and internal standard NG (25 ng/ml). After centrifugation at 13,500 rotations per minute (rpm) for 15 minutes at 4° C., the supernatants were evaporated to dryness by nitrogen evaporator, and the residue was reconstituted with 60 μl of 30% methanol in water containing 1% ascorbic acid. An aliquot of 10 μl of the final solution was injected into LC-MS/MS for analysis. The completion of de-conjugation reaction was monitored by mass spectrometry. In parallel, 10 μl aliquots of samples without enzymes were treated with 40 μl of ice-cold acetonitrile containing 1% glacial acetic acid and naringenin (NG) (25 nanogram per milliliter (ng/ml)) to determine the concentration of free silybin. The total concentrations of glucuronides and sulfates in samples were estimated from the difference between the amount of silybin released by incubation with both glucuronidase and sulfatase and the amount of free silybin without enzymes incubation.
The analysis of silybin and total concentrations of glucuronides and sulfates was performed on an Agilent HP 1100 LC-MS system (Agilent, CA). A Waters ACQUITY UPLC® BEH C18 Column (1.7 μm, 2.1×50 mm, Waters Corp., Ireland) was used for detection with a C18 Security Guard cartridge (4×2.0 mm i.d., Phenomenex, Torrance, Calif.). Silybin A and silybin B were well separated using optimized gradient elution with methanol (mobile phase B) and 0.1% formic acid in water (mobile phase A) as mobile phase at a flow rate of 0.4 ml/min with a run time of 10 minutes. The gradient employed was as follows (time: mobile phase B percentage): 0 min: 25%, 6 minutes: 40%, 6.5 minutes: 25%.
Pharmacokinetic parameters including half-life (T1/2), volume of distribution (Vd), oral clearance (CL/F), and area under the concentration-time curve (AUC) were calculated using the software package PK Solutions 2.0.2 (SUMMIT Co., Ashland, Ohio, USA) with non-compartment analysis. One-way analysis of variance (ANOVA) was used when multiple groups were compared and the Bonferroni post hoc correction was used to accommodate multiple testing. The two-sided unpaired Student's t-test was used when treatments or differences between two groups were compared. […] During all statistical analyses, differences in group sizes were considered in the calculations. Differences were considered statistically significant when P<0.05. All data is presented as geometric mean±S.D.

[2] = after oral administration; cited from earlier work
[3] = system: CCl4-induced acute liver injury; assay: CCl4-induced acute liver injury in rats; type: in vivo, rat
Description: Male SD rats were randomly divided into six groups: 1) Group I orally received blank vehicle for 7 days, and intraperitoneally (i.p.) injected with olive oil (2 ml/kg body weight) on day 7; 2) Group II orally received blank vehicle for 7 days, and injected with CCl4-olive oil mixture (40% CCl4, i.p., 2 ml/kg body weight) on day 7; 3) Group III was treated with silybin (100 mg/kg bodyweight, per os (p.o.) for 7 days, and injected with CCl4-olive oil mixture (40% CCl4, i.p., 2 ml/kg body weight) on day 7, 2 hour after administration of silybin; 4) Group IV was treated with silybin (100 mg/kg bodyweight, p.o.) and tangeretin (100 mg/kg bodyweight, p.o.) mixture for 7 days, and injected with CCl4-olive oil mixture (40% CCl4, i.p., 2 ml/kg body weight) on day 7, 2 hour after administration of the mixture; 5) Group V was treated with silybin (50 mg/kg bodyweight, p.o.) and tangeretin (50 mg/kg bodyweight, p.o.) mixture for 7 days, and injected with CCl4-olive oil mixture (40% CCl4, i.p., 2 ml/kg body weight) on day 7, 2 hour after administration of the mixture; 6) Group VI was treated with tangeretin (100 mg/kg bodyweight, p.o.) for 7 days, and injected with CCl4-olive oil mixture (40%, i.p., 2 ml/kg body weight) on day 7, 2 hour after administration of tangeretin. Model and control group were daily treated orally with blank solvent (35% PEG400: 15% Cremophor EL: 5% ethanol: 45% saline).
24 hours after the CCl4-induced toxic liver injury was initiated, rats were sacrificed under ether anesthesia. Blood was collected from the abdominal aorta for biochemical estimations. The liver was immediately removed and weighed. A large portion of the liver was snap-frozen in the liquid nitrogen and the remaining tissue was fixed in 10% buffer formalin, processed and embedded in paraffin for histological examination after hematoxylin and eosin (H&E) staining. Steatohepatitis was evaluated by level of alanine aminotransferase (ALT), aspartate aminotransferase (AST), triglycerides, total cholesterol and superoxide dismutase (SOD) using commercial kits (Nanjing Jiancheng Bioengineering Institute, Nanjing, China) according to manufacturer's instructions and histological assessment and scoring according to standardized criteria by a pathologist blind to the study.

**Q.** Which “fraction existing as conjugates in rat plasma” value [1] does the source give for `COc1cc([C@@H]2Oc3cc([C@H]4Oc5cc(O)cc(O)c5C(=O)[C@@H]4O)ccc3O[C@H]2CO)ccc1O` [silybin B] here?
**A.** The value was roughly 99%.

**Q.** What about the “Cmax of free silybin” value [1] of the same molecule?
**A.** Its value is 16 ± 5 ng/mL.

**Q.** And the “mean Cmax of total silybin (parent plus sulfate and glucuronide conjugates)” value [1]?
**A.** The value was 2478 ± 284 ng/mL.

**Q.** For `COc1cc(C2Oc3cc([C@H]4Oc5cc(O)cc(O)c5C(=O)[C@@H]4O)ccc3OC2CO)ccc1O` (stereo partly drawn) [silybin], which “share metabolized to glucuronide conjugates in human plasma” value [2] is on record?
**A.** The value was “about 55%”.

**Q.** What about the “share metabolized to sulfate conjugates in human plasma” value [2] of the same molecule?
**A.** The value was “about 28%”.

**Q.** And the “serum TG and TC levels” value ([3]; 100 mg/kg of silybin, p<0.01)?
**A.** The value was “attenuated increases”.

**Q.** And the “CCl4-induced macroscopic and histopathological liver changes (H&E)” value ([3]; 7 days oral pre-treatment, 24 hours after CCl4)?
**A.** The value was “less prominent”.

**Q.** What about the “CCl4-induced increase of liver weight and liver to body weight ratio” value ([3]; 7 days oral pre-treatment, 24 hours after CCl4, p<0.05) of the same molecule?
**A.** The value was “negated”.

**Q.** And the “CCl4-induced increase of serum activity of ALT and AST” value ([3]; silybin 100 mg/kg for seven consecutive days)?
**A.** Its value is “significantly prevented”.

**Q.** Which “fraction existing as conjugates in rat plasma” value [1] does the source give for `COc1cc([C@H]2Oc3cc([C@H]4Oc5cc(O)cc(O)c5C(=O)[C@@H]4O)ccc3O[C@@H]2CO)ccc1O` [silybin A] here?
**A.** The value was “about 97%”.

**Q.** What about the “Cmax of free silybin” value [1] of the same molecule?
**A.** Its value is 26 ± 13 ng/mL.

**Q.** What about the “mean Cmax of total silybin (parent plus sulfate and glucuronide conjugates)” value [1] of the same molecule?
**A.** The value was 1109 ± 158 ng/mL.
